In patent publication US20210278408A1, “METHODS OF TREATMENT OF CANCER WITH SUBSTITUTED PYRROLE AND PYRAZOLE COMPOUNDS AND DIAGNOSIS OF CANCERS SUSCEPTIBLE TO TREATMENT WITH SUBSTITUTED PYRROLE AND PYRAZOLE COMPOUNDS” (Bantam Pharmaceutical, LLC, priority 2018, published 2021):
pEC50: −log10 of the molar value.

Each compound was assayed on BJAB (malignant human B-cell-line) (assay: BJAB cell proliferation). Details: BJAB (malignant human B-cell-line) cell proliferation, EC50; read-out: BJAB.
Format: cell-based
Description: In certain embodiments, the therapeutic compound is one of the compounds of the compound table below. […] In certain embodiments, the therapeutic compound is a compound having an activity as “A,” “B” or “C” in the table below. In certain embodiments, the therapeutic compound is a compound having an activity as “A” or “B” in the table below. In certain embodiments, the therapeutic compound is a compound having an activity as “A” in the table below.
In certain embodiments, the therapeutic compound is one of the compounds of the compound table below, optionally provided as a pharmaceutically-acceptable salt or N-oxide, and/or a solvate or hydrate. […] In certain embodiments, the therapeutic compound is a compound having an activity as “A,” “B” or “C” in the table below. In certain embodiments, the therapeutic compound is a compound having an activity as “A” or “B” in the table below. In certain embodiments, the therapeutic compound is a compound having an activity as “A” in the table below.

Compound	pEC50
Cc1nn(-c2nc(C3=CCC(C(F)(F)F)CC3)c(SC(C)C)s2)c(C(=O)O)c1-c1cccc(F)c1 (stereo not shown) [Compound B5, 4-(3-fluorophenyl)-1-(5-(isopropylthio)-4-(4-(trifluoromethyl)cyclohex-1-en-1-yl)thiazol-2-yl)-3-methyl-1H-pyrazole-5-carboxylic acid]	> 6.00
COCCOC1(C(F)(F)F)CCN(c2nc(-n3nc(C)c(-c4cccc(F)c4)c3C(=O)O)sc2SC(C)C)CC1 [Compound B48, 4-(3-fluorophenyl)-1-(5-(isopropylthio)-4-(4-(2-methoxyethoxy)-4-(trifluoromethyl)piperidin-1-yl)thiazol-2-yl)-3-methyl-1H-pyrazole-5-carboxylic acid]	5.30 to 6.00
COCCNC(=O)c1ccc(-c2sc(-n3nc(C)c(-c4cccc(F)c4)c3C(=O)O)nc2-c2ccc(C(F)(F)F)cc2)cc1 [Compound B49, 4-(3-fluorophenyl)-1-(5-(4-((2-methoxyethyl)carbamoyl)phenyl)-4-(4-(trifluoromethyl)phenyl)thiazol-2-yl)-3-methyl-1H-pyrazole-5-carboxylic acid]	< 4.70
COCCN(C)C(=O)c1ccc(-c2sc(-n3nc(C)c(-c4cccc(F)c4)c3C(=O)O)nc2-c2ccc(C(F)(F)F)cc2)cc1 [Compound B50, 4-(3-fluorophenyl)-1-(5-(4-((2-methoxyethyl)(methyl)carbamoyl)phenyl)-4-(4-(trifluoromethyl)phenyl)thiazol-2-yl)-3-methyl-1H-pyrazole-5-carboxylic acid]	< 4.70
COCC(=O)Nc1ccc(-c2sc(-n3nc(C)c(-c4cccc(F)c4)c3C(=O)O)nc2-c2ccc(C(F)(F)F)cc2)cc1 [Compound B51, 4-(3-fluorophenyl)-1-(5-(4-(2-methoxyacetamido)phenyl)-4-(4-(trifluoromethyl)phenyl)thiazol-2-yl)-3-methyl-1H-pyrazole-5-carboxylic acid]	4.60 to 5.00
COCCOCC(=O)Nc1ccc(-c2sc(-n3nc(C)c(-c4cccc(F)c4)c3C(=O)O)nc2-c2ccc(C(F)(F)F)cc2)cc1 [Compound B52, 4-(3-fluorophenyl)-1-(5-(4-(2-(2-methoxyethoxy)acetamido)phenyl)-4-(4-(trifluoromethyl)phenyl)thiazol-2-yl)-3-methyl-1H-pyrazole-5-carboxylic acid]	4.60 to 5.00
COCCNC(=O)CCc1sc(-n2nc(C)c(-c3cccc(F)c3)c2C(=O)O)nc1-c1ccc(C(F)(F)F)cc1 [Compound B53, 4-(3-fluorophenyl)-1-(5-(3-((2-methoxyethyl)amino)-3-oxopropyl)-4-(4-(trifluoromethyl)phenyl)thiazol-2-yl)-3-methyl-1H-pyrazole-5-carboxylic acid]	< 4.70
COCCN(C)C(=O)CCc1sc(-n2nc(C)c(-c3cccc(F)c3)c2C(=O)O)nc1-c1ccc(C(F)(F)F)cc1 [Compound B54, 4-(3-fluorophenyl)-1-(5-(3-((2-methoxyethyl)(methyl)amino)-3-oxopropyl)-4-(4-(trifluoromethyl)phenyl)thiazol-2-yl)-3-methyl-1H-pyrazole-5-carboxylic acid]	< 4.70
COCC(=O)N(C)c1ccc(-c2sc(-n3nc(C)c(-c4cccc(F)c4)c3C(=O)O)nc2-c2ccc(C(F)(F)F)cc2)cc1 [Compound B55, 4-(3-fluorophenyl)-1-(5-(4-(2-methoxy-N-methylacetamido)phenyl)-4-(4-(trifluoromethyl)phenyl)thiazol-2-yl)-3-methyl-1H-pyrazole-5-carboxylic acid]	< 4.70
COCCOCC(=O)N(C)c1ccc(-c2sc(-n3nc(C)c(-c4cccc(F)c4)c3C(=O)O)nc2-c2ccc(C(F)(F)F)cc2)cc1 [Compound B56, 4-(3-fluorophenyl)-1-(5-(4-(2-(2-methoxyethoxy)-N-methylacetamido)phenyl)-4-(4-(trifluoromethyl)phenyl)thiazol-2-yl)-3-methyl-1H-pyrazole-5-carboxylic acid]	< 4.70
COCc1sc(-n2nc(C)c(-c3cccc(F)c3)c2C(=O)O)nc1-c1ccc(C(F)(F)F)cc1 [Compound B57, 4-(3-fluorophenyl)-1-(5-(methoxymethyl)-4-(4-(trifluoromethyl)phenyl)thiazol-2-yl)-3-methyl-1H-pyrazole-5-carboxylic acid]	5.00 to 5.30
CCOCCOCCOc1ccc(-c2sc(-n3nc(C)c(-c4cccc(F)c4)c3C(=O)O)nc2-c2ccc(C(F)(F)F)cc2)cc1 [Compound B58, 1-(5-(4-(2-(2-ethoxyethoxy)ethoxy)phenyl)-4-(4-(trifluoromethyl)phenyl)thiazol-2-yl)-4-(3-fluorophenyl)-3-methyl-1H-pyrazole-5-carboxylic acid]	5.30 to 6.00
Cc1nn(-c2nc(-c3ccc(C(F)(F)F)cc3)c(-c3cccc(F)c3)s2)c(C(=O)O)c1-c1cccc(F)c1 [Compound B59, 4-(3-fluorophenyl)-1-(5-(3-fluorophenyl)-4-(4-(trifluoromethyl)phenyl)thiazol-2-yl)-3-methyl-1H-pyrazole-5-carboxylic acid]	> 6.00
Cc1nn(-c2nc(-c3ccc(C(F)(F)F)cc3)c(CO)s2)c(C(=O)O)c1-c1cccc(F)c1 [Compound B60, 4-(3-fluorophenyl)-1-(5-(hydroxymethyl)-4-(4-(trifluoromethyl)phenyl)thiazol-2-yl)-3-methyl-1H-pyrazole-5-carboxylic acid]	< 4.70
Cc1nn(-c2nc(N3CCC(C(F)(F)F)CC3)c(-c3ccc(C(F)(F)F)cc3)s2)c(C(=O)O)c1-c1cccc(F)c1 [Compound B61, 4-(3-fluorophenyl)-3-methyl-1-(5-(4-(trifluoromethyl)phenyl)-4-(4-(trifluoromethyl)piperidin-1-yl)thiazol-2-yl)-1H-pyrazole-5-carboxylic acid]	> 6.00
Cc1nn(-c2nc(-c3cccc(F)c3)c(-c3ccc(C(F)(F)F)cc3)s2)c(C(=O)O)c1-c1cccc(F)c1 [Compound B62, 4-(3-fluorophenyl)-1-(4-(3-fluorophenyl)-5-(4-(trifluoromethyl)phenyl)thiazol-2-yl)-3-methyl-1H-pyrazole-5-carboxylic acid]	5.00 to 5.30
Cc1nn(-c2nc(-c3ccc(C(F)(F)F)cc3)c(C(C)O)s2)c(C(=O)O)c1-c1cccc(F)c1 (stereo not shown) [Compound B63, 4-(3-fluorophenyl)-1-(5-(1-hydroxyethyl)-4-(4-(trifluoromethyl)phenyl)thiazol-2-yl)-3-methyl-1H-pyrazole-5-carboxylic acid]	< 4.70
Cc1nn(-c2nc(-c3ccc(C(F)(F)F)cc3)c(CCO)s2)c(C(=O)O)c1-c1cccc(F)c1 [Compound B64, 4-(3-fluorophenyl)-1-(5-(2-hydroxyethyl)-4-(4-(trifluoromethyl)phenyl)thiazol-2-yl)-3-methyl-1H-pyrazole-5-carboxylic acid]	< 4.70
COCCOc1ccc(-c2sc(-n3nc(C)c(-c4cccc(F)c4)c3C(=O)O)nc2-c2ccc(C(F)(F)F)cc2)cc1 [Compound B65, 4-(3-fluorophenyl)-1-(5-(4-(2-methoxyethoxy)phenyl)-4-(4-(trifluoromethyl)phenyl)thiazol-2-yl)-3-methyl-1H-pyrazole-5-carboxylic acid]	5.30 to 6.00
COC(C)c1sc(-n2nc(C)c(-c3cccc(F)c3)c2C(=O)O)nc1-c1ccc(C(F)(F)F)cc1 (stereo not shown) [Compound B66, 4-(3-fluorophenyl)-1-(5-(1-methoxyethyl)-4-(4-(trifluoromethyl)phenyl)thiazol-2-yl)-3-methyl-1H-pyrazole-5-carboxylic acid]	5.00 to 5.30
Cc1nn(-c2nc(N3CCC(C(C)C)CC3)c(SC(C)C)s2)c(C(=O)O)c1-c1cccc(F)c1 [Compound B67, 4-(3-fluorophenyl)-1-(4-(4-isopropylpiperidin-1-yl)-5-(isopropylthio)thiazol-2-yl)-3-methyl-1H-pyrazole-5-carboxylic acid]	5.30 to 6.00

These compounds were tested on ATF4 (assay: ATF4 induction by immunofluorescence in HCT-116 cells transfected with tGFP or FAM210B-GFP). Details: not given.
Format: cell-based, human
Design: compound mediated ATF4 induction versus FAM210B expression: dose or concentration left out as unconfirmed
Description: FIG. 17 is a set of fluorescence micrographs of HCT-116 cells transfected with a vector expressing tGFP (left) or FAM210B-GFP (right).
FIG. 18 is a graph of ATF4 expression versus GFP expression for HCT-116 cells transfected with a vector expressing tGFP or FAM210B-GFP.
HCT-116 cells were transfected with a vector expressing tGFP or FAM210B-GFP. […] Following 4 hrs of drug treatment the cells were fixed, permeabilized, and ATF4 levels determined by immunofluorescence (IF), and FAM210B levels were determined by detection of GFP. Cells were binned based on median ATF4 protein expression and ranked relative to level of FAM210B-tGFP.

Compound	effect of FAM210B expression on induction of ATF4 by the agent
arsenite [reference compound]	no effect

Same assay, conditions: HCT-116 transfected with tGFP or FAM210B-GFP; 4 hrs; immunofluorescence

Compound	compound mediated ATF4 induction versus FAM210B expression
Cc1nn(-c2nc(C3=CCC(C(F)(F)F)CC3)c(SC(C)C)s2)c(C(=O)O)c1-c1cccc(F)c1 (stereo not shown) [Compound B5, 4-(3-fluorophenyl)-1-(5-(isopropylthio)-4-(4-(trifluoromethyl)cyclohex-1-en-1-yl)thiazol-2-yl)-3-methyl-1H-pyrazole-5-carboxylic acid]	induction of ATF4 is inhibited by FAM210B expression in HCT-116 cells

Same assay, conditions: alternate pathways of ATF4 induction

Compound	effect of FAM210B expression on induction of ATF4 by the agent
tunicamycin [reference compound]	no effect

Same assay, conditions: follow-up studies

Compound	effect of PERK inhibitors on compound mediated induction of ATF4
Cc1nn(-c2nc(C3=CCC(C(F)(F)F)CC3)c(SC(C)C)s2)c(C(=O)O)c1-c1cccc(F)c1 (stereo not shown) [Compound B5, 4-(3-fluorophenyl)-1-(5-(isopropylthio)-4-(4-(trifluoromethyl)cyclohex-1-en-1-yl)thiazol-2-yl)-3-methyl-1H-pyrazole-5-carboxylic acid]	no effect
